# Test results: PubChem BioAssay (NCI)
#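 How tested: cells in 96-well plates exposed to compound for 48 hours at five concentrations. TGI: concentration producing complete growth inhibition.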
# Legend:
# Experiment in all cases: NCI tumour cell line growth inhibition, 48 h
# 786-0 renal = tested on: 786-0 renal
# A498 renal = tested on: A498 renal
# A549 NSCLC = tested on: A549 NSCLC
# ACHN renal = tested on: ACHN renal
# CCRF-CEM leukemia = tested on: CCRF-CEM leukemia
# COLO 205 colon = tested on: COLO 205 colon
# DLD-1 colon = tested on: DLD-1 colon
# DMS 114 small cell lung = tested on: DMS 114 small cell lung
# DMS 273 small cell lung = tested on: DMS 273 small cell lung
# EKVX NSCLC = tested on: EKVX NSCLC
# HCT-116 colon = tested on: HCT-116 colon
# HCT-15 colon = tested on: HCT-15 colon
# HOP-18 NSCLC = tested on: HOP-18 NSCLC
# HOP-62 NSCLC = tested on: HOP-62 NSCLC
# HOP-92 NSCLC = tested on: HOP-92 NSCLC
# HT29 colon = tested on: HT29 colon
# IGROV1 ovarian = tested on: IGROV1 ovarian
# K-562 leukemia = tested on: K-562 leukemia
# KM20L2 colon = tested on: KM20L2 colon
# LOX IMVI melanoma = tested on: LOX IMVI melanoma
# LXFL 529 NSCLC = tested on: LXFL 529 NSCLC
# M14 melanoma = tested on: M14 melanoma
# M19-MEL melanoma = tested on: M19-MEL melanoma
# MALME-3M melanoma = tested on: MALME-3M melanoma
# MOLT-4 leukemia = tested on: MOLT-4 leukemia
# NCI-H226 lung = tested on: NCI-H226 lung
# NCI-H23 lung = tested on: NCI-H23 lung
# NCI-H460 lung = tested on: NCI-H460 lung
# NCI-H522 lung = tested on: NCI-H522 lung
# OVCAR-3 ovarian = tested on: OVCAR-3 ovarian
# OVCAR-4 ovarian = tested on: OVCAR-4 ovarian
# OVCAR-5 ovarian = tested on: OVCAR-5 ovarian
# OVCAR-8 ovarian = tested on: OVCAR-8 ovarian
# RPMI-8226 leukemia = tested on: RPMI-8226 leukemia
# RXF 393 renal = tested on: RXF 393 renal
# RXF-631 renal = tested on: RXF-631 renal
# SF-268 CNS = tested on: SF-268 CNS
# SF-295 CNS = tested on: SF-295 CNS
# SF-539 CNS = tested on: SF-539 CNS
# SK-MEL-2 melanoma = tested on: SK-MEL-2 melanoma
# SK-MEL-28 melanoma = tested on: SK-MEL-28 melanoma
# SK-MEL-5 melanoma = tested on: SK-MEL-5 melanoma
# SK-OV-3 ovarian = tested on: SK-OV-3 ovarian
# SN12C renal = tested on: SN12C renal
# SNB-19 CNS = tested on: SNB-19 CNS
# SNB-75 CNS = tested on: SNB-75 CNS
# SNB-78 CNS = tested on: SNB-78 CNS
# SW-620 colon = tested on: SW-620 colon
# TK-10 renal = tested on: TK-10 renal
# U251 CNS = tested on: U251 CNS
# UACC-257 melanoma = tested on: UACC-257 melanoma
# UACC-62 melanoma = tested on: UACC-62 melanoma
# UO-31 renal = tested on: UO-31 renal
# XF 498 CNS = tested on: XF 498 CNS
# CAKI-1 renal = tested on: CAKI-1 renal
# HL-60(TB) leukemia = tested on: HL-60(TB) leukemia
# KM12 colon = tested on: KM12 colon
# SR leukemia = tested on: SR leukemia
compound,measurement,setting,value
Cc1cccc(C(=O)c2cccc3ccccc23)c1C(=O)O,TGI,786-0 renal,> 100 µM
same,TGI,A498 renal,> 100 µM
same,TGI,A549 NSCLC,> 100 µM
same,TGI,ACHN renal,> 100 µM
same,TGI,CCRF-CEM leukemia,> 100 µM
same,TGI,COLO 205 colon,80 µM
same,TGI,DLD-1 colon,> 100 µM
same,TGI,DMS 114 small cell lung,13.8 µM
same,TGI,DMS 273 small cell lung,> 100 µM
same,TGI,EKVX NSCLC,> 100 µM
same,TGI,HCT-116 colon,> 100 µM
same,TGI,HCT-15 colon,> 100 µM
same,TGI,HOP-18 NSCLC,> 100 µM
same,TGI,HOP-62 NSCLC,> 100 µM
same,TGI,HOP-92 NSCLC,> 100 µM
same,TGI,HT29 colon,> 100 µM
same,TGI,IGROV1 ovarian,> 100 µM
same,TGI,K-562 leukemia,> 100 µM
same,TGI,KM20L2 colon,> 100 µM
same,TGI,LOX IMVI melanoma,> 100 µM
same,TGI,LXFL 529 NSCLC,> 100 µM
same,TGI,M14 melanoma,> 100 µM
same,TGI,M19-MEL melanoma,> 100 µM
same,TGI,MALME-3M melanoma,> 100 µM
same,TGI,MOLT-4 leukemia,> 100 µM
same,TGI,NCI-H226 lung,> 100 µM
same,TGI,NCI-H23 lung,> 100 µM
same,TGI,NCI-H460 lung,> 100 µM
same,TGI,NCI-H522 lung,> 100 µM
same,TGI,OVCAR-3 ovarian,> 100 µM
same,TGI,OVCAR-4 ovarian,> 100 µM
same,TGI,OVCAR-5 ovarian,> 100 µM
same,TGI,OVCAR-8 ovarian,> 100 µM
same,TGI,RPMI-8226 leukemia,> 100 µM
same,TGI,RXF 393 renal,> 100 µM
same,TGI,RXF-631 renal,> 100 µM
same,TGI,SF-268 CNS,> 100 µM
same,TGI,SF-295 CNS,> 100 µM
same,TGI,SF-539 CNS,> 100 µM
same,TGI,SK-MEL-2 melanoma,> 100 µM
same,TGI,SK-MEL-28 melanoma,> 100 µM
same,TGI,SK-MEL-5 melanoma,> 100 µM
same,TGI,SK-OV-3 ovarian,> 100 µM
same,TGI,SN12C renal,> 100 µM
same,TGI,SNB-19 CNS,> 100 µM
same,TGI,SNB-75 CNS,> 100 µM
same,TGI,SNB-78 CNS,> 100 µM
same,TGI,SW-620 colon,> 100 µM
same,TGI,TK-10 renal,> 100 µM
same,TGI,U251 CNS,> 100 µM
same,TGI,UACC-257 melanoma,> 100 µM
same,TGI,UACC-62 melanoma,> 100 µM
same,TGI,UO-31 renal,> 100 µM
same,TGI,XF 498 CNS,> 100 µM
O=C(Nc1c(O)[nH]c(=S)[nH]c1=O)c1ccccn1,TGI,786-0 renal,> 100 µM
same,TGI,A498 renal,> 100 µM
same,TGI,A549 NSCLC,> 100 µM
same,TGI,ACHN renal,> 100 µM
same,TGI,CAKI-1 renal,> 100 µM
same,TGI,CCRF-CEM leukemia,> 100 µM
same,TGI,COLO 205 colon,> 100 µM
same,TGI,DLD-1 colon,> 100 µM
same,TGI,DMS 114 small cell lung,> 100 µM
same,TGI,HCT-116 colon,> 100 µM
same,TGI,HCT-15 colon,> 100 µM
same,TGI,HL-60(TB) leukemia,> 100 µM
same,TGI,HOP-18 NSCLC,> 100 µM
same,TGI,HOP-62 NSCLC,> 100 µM
same,TGI,HOP-92 NSCLC,> 100 µM
same,TGI,HT29 colon,> 100 µM
same,TGI,IGROV1 ovarian,> 100 µM
same,TGI,K-562 leukemia,> 100 µM
same,TGI,KM12 colon,> 100 µM
same,TGI,KM20L2 colon,> 100 µM
same,TGI,LOX IMVI melanoma,> 100 µM
same,TGI,LXFL 529 NSCLC,> 100 µM
same,TGI,M14 melanoma,> 100 µM
same,TGI,M19-MEL melanoma,> 100 µM
same,TGI,MALME-3M melanoma,> 100 µM
same,TGI,MOLT-4 leukemia,> 100 µM
same,TGI,NCI-H226 lung,> 100 µM
same,TGI,NCI-H23 lung,> 100 µM
same,TGI,NCI-H460 lung,> 100 µM
same,TGI,NCI-H522 lung,> 100 µM
same,TGI,OVCAR-3 ovarian,> 100 µM
same,TGI,OVCAR-4 ovarian,> 100 µM
same,TGI,OVCAR-5 ovarian,> 100 µM
same,TGI,OVCAR-8 ovarian,> 100 µM
same,TGI,RPMI-8226 leukemia,> 100 µM
same,TGI,RXF-631 renal,> 100 µM
same,TGI,SF-268 CNS,> 100 µM
same,TGI,SF-295 CNS,> 100 µM
same,TGI,SF-539 CNS,> 100 µM
same,TGI,SK-MEL-2 melanoma,> 100 µM
same,TGI,SK-MEL-28 melanoma,> 100 µM
same,TGI,SK-MEL-5 melanoma,> 100 µM
same,TGI,SK-OV-3 ovarian,> 100 µM
same,TGI,SN12C renal,> 100 µM
same,TGI,SNB-19 CNS,> 100 µM
same,TGI,SNB-75 CNS,> 100 µM
same,TGI,SNB-78 CNS,> 100 µM
same,TGI,SR leukemia,> 100 µM
same,TGI,SW-620 colon,> 100 µM
same,TGI,TK-10 renal,> 100 µM
same,TGI,U251 CNS,> 100 µM
same,TGI,UACC-257 melanoma,> 100 µM
same,TGI,UACC-62 melanoma,> 100 µM
same,TGI,UO-31 renal,> 100 µM
